Patent publication US20100249234A1, “METHODS OF REDUCING VIRULENCE IN BACTERIA” (UWM RESEARCH FOUNDATION, INC., priority 2007, published 2010)

Tests used:
Format in all cases: cell-based, Dickeya dadantii 3937 (Ech3937)
hrpA promoter = hrpA promoter activity, GFP reporter plasmid phrpA, flow cytometry (FACS); settings: for expression of hrpA, GFP intensity (Mean Fluorescence Intensity), Ech3937 carrying phrpA: MM + 0.1 mM compound
Procedure: FACS analysis of promoter activity of dspE, hrpA, hrpL, hrpN, and hrpS was carried out as described (Peng et al., 2006). Briefly, the wild-type Ech3937 and the mutant strains carrying the promoter reporter plasmid were grown on LB broth at 28° C. overnight and transferred to appropriate media. For FACS analysis, samples were collected by centrifugation, washed with 1× phosphate buffer saline (PBS) at 13,000 rpm for 1 min, and re-suspended in 1×PBS to ca 10^6 CFU/ml prior to being run in a FACS Calibur flow cytometer (BD Biosciences, CA). Three replicates were performed for each treatment.
To identify potential compounds that repress activation of T3SS, analogs and isomers of TCA and intermediates of salicylic acid and phenypropanoid biosynthesis pathways in plants were further screened for their effect on Ech3937 hrpA expression by flow cytometry (Table 9). A green fluorescent protein (GFP) reporter plasmid phrpA (pProbe-AT derivative with PCR fragment containing hrpA promoter region) was constructed, resulting in a transcriptional fusion of hrpA promoter with GFP gene. Bacterial cells containing phrpA plasmid were grown in MM supplemented with 0.1 mM of each compound. GFP intensity, which is a measurement of hrpA promoter activity, was measured by flow cytometry.

hrpN promoter = hrpN promoter activity, GFP reporter plasmid phrpN, flow cytometry (FACS)
Ech3937 = experiment: Growth of Ech3937 in MM supplemented with compound; settings: 0.05, 0.1 and 0.2 mM in MM (FIGS. 2A, 2B)
Description: Phenolic compounds constitute an important class of organic substances produced by plants. The phenolic compound SA is a signaling molecule that plays a role in host defenses. OCA and TCA are the biosynthetic precursors of SA and are also reported to induce the expression of defense-related genes in plants. OCA, TCA, and SA were examined to elucidate their effects on the expression of T3SS genes. The expression of the T3SS gene hrpN was examined in MM and MM supplemented with OCA, TCA, and SA, at concentrations of 0.05, 0.1, and 0.2 mM, respectively. FIGS. 2A and 2B show the promoter activities of hrpN in Dickeya dadantii 3937 (Ech3937) grown in MM and MM supplemented with 0.05, 0.1, and 0.2 mM OCA, TCA, and SA at 12 h (FIG. 2A) and 24 h (FIG. 2B) post-inoculation. GFP intensity was determined on gated populations of bacterial cells by flow cytometry and analyzed with the Cell Quest software (BD Biosciences, San Jose, Calif.). The growth of Ech3937 in MM supplemented with different concentrations of OCA, TCA and SA was recorded. Compared with MM alone, the average GFP fluorescence intensity of bacterial cells of Ech3937 (phrpN) was increased approximately 4-fold when 0.05 mM of OCA and TCA were added to the medium (FIGS. 2A, 2B).
The expression of the T3SS gene hrpA was further examined in MM and MM supplemented with PCA at concentrations of 0.001, 0.005, 0.01, 0.05 and 0.1 mM respectively. FIGS. 16A and 16B show the promoter activities of hrpA in Dickeya dadantii 3937 (Ech3937) grown in minimum medium (MM) and MM supplemented with different amount of p-coumaric acid (PCA) at 12 h (FIG. 16A) and 24 h (FIG. 16B) post-inoculation. GFP intensity was determined on gated populations of bacterial cells by flow cytometry and analyzed with the Cell Quest software (BD Biosciences, San Jose, Calif.). The growth of Ech3937 in MM supplemented with different concentrations of PCA was recorded. Compared with MM alone, the average GFP fluorescence intensity of bacterial cells of Ech3937 (phrpA) was reduced more than 4-fold when 0.05 and 0.1 mM of PCA were added to the medium (FIGS. 16A, 16B).

Compound: O=C(O)CCc1ccccc1 [Hydrocinnamic acid]
- expression of hrpA, GFP intensity (Mean Fluorescence Intensity), Ech3937 carrying phrpA (hrpA promoter; 6 h (Table 9)): 13.7 ± 1.0
- expression of hrpA, GFP intensity (Mean Fluorescence Intensity), Ech3937 carrying phrpA (hrpA promoter; 12 h (Table 9)): 200.3 ± 35.8
- expression of hrpA, GFP intensity (Mean Fluorescence Intensity), Ech3937 carrying phrpA (hrpA promoter; 24 h (Table 9)): 213.5 ± 18.9

Compound: O=C(O)C=Cc1ccccc1Cl [2-Chlorocinnamic acid]
- expression of hrpA, GFP intensity (Mean Fluorescence Intensity), Ech3937 carrying phrpA (hrpA promoter; 6 h (Table 9)): 25.7 ± 0.2
- expression of hrpA, GFP intensity (Mean Fluorescence Intensity), Ech3937 carrying phrpA (hrpA promoter; 12 h (Table 9)): 166.2 ± 17.8
- expression of hrpA, GFP intensity (Mean Fluorescence Intensity), Ech3937 carrying phrpA (hrpA promoter; 24 h (Table 9)): 319.8 ± 48.3

Compound: OCC=Cc1ccccc1 [Cinnamyl alcohol]
- effect on expression of hrpA (screen result) (hrpA promoter; MM + 0.1 mM compound (Table 9)): inhibitors of the expression of hrpA
- expression of hrpA, GFP intensity (Mean Fluorescence Intensity), Ech3937 carrying phrpA (hrpA promoter; 6 h (Table 9)): 6.3 ± 0.1
- expression of hrpA, GFP intensity (Mean Fluorescence Intensity), Ech3937 carrying phrpA (hrpA promoter; 12 h (Table 9)): 27.8 ± 5.0
- expression of hrpA, GFP intensity (Mean Fluorescence Intensity), Ech3937 carrying phrpA (hrpA promoter; 24 h (Table 9)): 53.8 ± 2.9

Compound: O=C(O)/C=C/c1c[nH]c2ccccc12 [trans-3-indoleacrylic acid]
- expression of hrpA, GFP intensity (Mean Fluorescence Intensity), Ech3937 carrying phrpA (hrpA promoter; 6 h (Table 9)): 7.9 ± 0.2
- expression of hrpA, GFP intensity (Mean Fluorescence Intensity), Ech3937 carrying phrpA (hrpA promoter; 12 h (Table 9)): 23.9 ± 1.3
- expression of hrpA, GFP intensity (Mean Fluorescence Intensity), Ech3937 carrying phrpA (hrpA promoter; 24 h (Table 9)): 121.0 ± 6.2

Compound: O=C(O)c1ccccc1O [SA, salicylic acid, reference compound]
- effect on GFP fluorescence intensity of Ech3937 (phrpN) compared with MM alone (hrpN promoter; 0.05, 0.1 and 0.2 mM in MM, 12 h and 24 h (FIGS. 2A, 2B)): did not result in increased GFP fluorescence intensity
- GFP Intensity of Ech3937 (phrpN) (hrpN promoter; MM + 0.2 μM compound, 12 h): 53.7 ± 4.0
- GFP Intensity of Ech3937 (phrpN) (hrpN promoter; MM + 0.2 μM compound, 24 h): 105 ± 28
- GFP Intensity of Ech3937 (phrpN) (hrpN promoter; MM + 0.5 μM compound, 12 h): 49.5 ± 5.9
- GFP Intensity of Ech3937 (phrpN) (hrpN promoter; MM + 0.5 μM compound, 24 h): 99.5 ± 18
- GFP Intensity of Ech3937 (phrpN) (hrpN promoter; MM + 5 μM compound, 12 h): 49.9 ± 2.9
- GFP Intensity of Ech3937 (phrpN) (hrpN promoter; MM + 5 μM compound, 24 h): 97.7 ± 9.0
- GFP Intensity of Ech3937 (phrpN) (hrpN promoter; MM + 10 μM compound, 12 h): 52.0 ± 2.3
- GFP Intensity of Ech3937 (phrpN) (hrpN promoter; MM + 10 μM compound, 24 h): 104 ± 3.1
- bacterial growth of Ech3937 in supplemented MM (Ech3937): No reduction of bacterial growth

Compound: O=C(O)[C@@H]1C[C@H]1c1ccccc1 (relative stereo) [trans-2-Phenylcyclopropane-1-carboxylic acid]
- expression of hrpA, GFP intensity (Mean Fluorescence Intensity), Ech3937 carrying phrpA (hrpA promoter; 6 h (Table 9)): 7.2 ± 0.1
- expression of hrpA, GFP intensity (Mean Fluorescence Intensity), Ech3937 carrying phrpA (hrpA promoter; 12 h (Table 9)): 67.0 ± 18.4
- expression of hrpA, GFP intensity (Mean Fluorescence Intensity), Ech3937 carrying phrpA (hrpA promoter; 24 h (Table 9)): 84.0 ± 14.3

Compound: COC(=O)/C=C/c1ccccc1 [Methyl trans-cinnamate]
- expression of hrpA, GFP intensity (Mean Fluorescence Intensity), Ech3937 carrying phrpA (hrpA promoter; 6 h (Table 9)): 9.7 ± 0.1
- expression of hrpA, GFP intensity (Mean Fluorescence Intensity), Ech3937 carrying phrpA (hrpA promoter; 12 h (Table 9)): 135.8 ± 8.1
- expression of hrpA, GFP intensity (Mean Fluorescence Intensity), Ech3937 carrying phrpA (hrpA promoter; 24 h (Table 9)): 219.2 ± 14.5

Compound: Cc1ccccc1C=CC(=O)O [2-Methylcinnamic acid]
- expression of hrpA, GFP intensity (Mean Fluorescence Intensity), Ech3937 carrying phrpA (hrpA promoter; 6 h (Table 9)): 22.8 ± 0.6
- expression of hrpA, GFP intensity (Mean Fluorescence Intensity), Ech3937 carrying phrpA (hrpA promoter; 12 h (Table 9)): 157.2 ± 11.7
- expression of hrpA, GFP intensity (Mean Fluorescence Intensity), Ech3937 carrying phrpA (hrpA promoter; 24 h (Table 9)): 342.5 ± 16.6

Compound: O=C(O)COc1ccccc1 [Phenoxyacetic acid]
- expression of hrpA, GFP intensity (Mean Fluorescence Intensity), Ech3937 carrying phrpA (hrpA promoter; 6 h (Table 9)): 18.0 ± 3.1
- expression of hrpA, GFP intensity (Mean Fluorescence Intensity), Ech3937 carrying phrpA (hrpA promoter; 12 h (Table 9)): 222.7 ± 64.3
- expression of hrpA, GFP intensity (Mean Fluorescence Intensity), Ech3937 carrying phrpA (hrpA promoter; 24 h (Table 9)): 205.7 ± 11.8

Compound: O=C(O)/C=C/c1cccc(O)c1 [m-Coumaric acid]
- expression of hrpA, GFP intensity (Mean Fluorescence Intensity), Ech3937 carrying phrpA (hrpA promoter; 6 h (Table 9)): 12.1 ± 0.0
- expression of hrpA, GFP intensity (Mean Fluorescence Intensity), Ech3937 carrying phrpA (hrpA promoter; 12 h (Table 9)): 133.0 ± 38.2
- expression of hrpA, GFP intensity (Mean Fluorescence Intensity), Ech3937 carrying phrpA (hrpA promoter; 24 h (Table 9)): 203.3 ± 9.6

Compound: O=C(O)/C=C/c1cccnc1 [trans-3-(3-Pyridyl)acrylic acid]
- expression of hrpA, GFP intensity (Mean Fluorescence Intensity), Ech3937 carrying phrpA (hrpA promoter; 6 h (Table 9)): 13.1 ± 0.4
- expression of hrpA, GFP intensity (Mean Fluorescence Intensity), Ech3937 carrying phrpA (hrpA promoter; 12 h (Table 9)): 184.9 ± 35.6
- expression of hrpA, GFP intensity (Mean Fluorescence Intensity), Ech3937 carrying phrpA (hrpA promoter; 24 h (Table 9)): 204.0 ± 16.8
